According to article PMC12042115 (mLife, 2025):
Where two headings read alike, the source gives them in different places.

Test system: wild‐type BCG cells
Type: cell-based, M. bovis BCG
Conditions: for Mean_Ratio GDI5755_3d: DMSO_3d: Table S6; for Mean Ratio: GDI5755_2d vs DMSO_2d; for Mean Ratio / Mean Ratio (GDI5755_2d vs DMSO_2d): up-regulated; for Mean_Ratio (GDI5755_3d vs DMSO_3d): down-regulated, 3 d; for Mean Ratio (GDI5755_2d vs DMSO_2d): 2d

O=C(Oc1ccc(Cl)cc1)c1ccc(N2CCOCC2)c([N+](=O)[O-])c1 [GDI‐5755]
Mean_Ratio GDI5755_3d: DMSO_3d (BCG_1101c Serine protease): 1.4 | Mean_Ratio GDI5755_3d: DMSO_3d (BCG_1189c HNH nuclease domain-containing protein): 1.3 | Mean_Ratio GDI5755_3d: DMSO_3d (BCG_1283 Probable serine protease htrA): 1.3 | Mean_Ratio GDI5755_3d: DMSO_3d (BCG_1324 Uncharacterized protein): 1.3 | Mean_Ratio GDI5755_3d: DMSO_3d (BCG_1333 Lipoprotein lprB): 1.3 | Mean_Ratio GDI5755_3d: DMSO_3d (BCG_1334 Lipoprotein lprC): 1.3 | Mean_Ratio GDI5755_3d: DMSO_3d (BCG_1438c Transferase): 1.3 | Mean_Ratio GDI5755_3d: DMSO_3d (BCG_1471c Probable triacylglyceride transporter): 1.3 | Mean_Ratio GDI5755_3d: DMSO_3d (BCG_1492 Conserved membrane protein): 1.3 | Mean_Ratio GDI5755_3d: DMSO_3d (BCG_1523 Fe-S cluster assembly protein SufD): 1.3 | Mean_Ratio GDI5755_3d: DMSO_3d (BCG_1532 Thioredoxin): 1.3 | Mean_Ratio GDI5755_3d: DMSO_3d (BCG_1543 UPF0353 protein): 1.3 | Mean_Ratio GDI5755_3d: DMSO_3d (BCG_1787 DUF4129 domain-containing protein): 1.4 | Mean_Ratio GDI5755_3d: DMSO_3d (BCG_1890c NADH dehydrogenase ndh): 1.5 | Mean_Ratio GDI5755_3d: DMSO_3d (BCG_1937 Thiamine-binding protein-containing protein): 1.3 | Mean_Ratio GDI5755_3d: DMSO_3d (BCG_1984 HNH nuclease domain-containing protein): 1.3 | Mean_Ratio GDI5755_3d: DMSO_3d (BCG_2183c Transcriptional regulator MraZ): 1.3 | Mean_Ratio GDI5755_3d: DMSO_3d (BCG_2241c Serine protease Hip1): 1.3 | Mean_Ratio GDI5755_3d: DMSO_3d (BCG_2351c Probable lipoprotein lppP): 1.3 | Mean_Ratio GDI5755_3d: DMSO_3d (BCG_2486c DSBA-like thioredoxin domain-containing protein): 1.7 | Mean_Ratio GDI5755_3d: DMSO_3d (BCG_2516c pyruvate dehydrogenase E1 component pdhB): 1.3 | Mean_Ratio GDI5755_3d: DMSO_3d (BCG_2656 Uncharacterized protein): 1.4 | Mean_Ratio GDI5755_3d: DMSO_3d (BCG_2721c DUF3039 domain-containing protein): 1.4 | Mean_Ratio GDI5755_3d: DMSO_3d (BCG_2723 RNA polymerase sigma factor, sigB): 1.3 | Mean_Ratio GDI5755_3d: DMSO_3d (BCG_2934c Possible D-amino acid aminohydrolase): 1.4 | Mean_Ratio GDI5755_3d: DMSO_3d (BCG_3028 conserved lipoprotein lppZ): 1.3 | Mean_Ratio GDI5755_3d: DMSO_3d (BCG_3153c Diacylglycerol O-acyltransferase): 1.4 | Mean_Ratio GDI5755_3d: DMSO_3d (BCG_3164 Probable NADPH quinone oxidoreductase fadB4): 1.2 | Mean_Ratio GDI5755_3d: DMSO_3d (BCG_3165c Uncharacterized protein): 1.3 | Mean_Ratio GDI5755_3d: DMSO_3d (BCG_3185c Dioxygenase): 2.2 | Mean_Ratio GDI5755_3d: DMSO_3d (BCG_3269c Protein translocase subunit SecA 1): 1.2 | Mean_Ratio GDI5755_3d: DMSO_3d (BCG_3476 Probable dioxygenase): 1.6 | Mean_Ratio GDI5755_3d: DMSO_3d (BCG_3583 Acetoacetate decarboxylase): 1.3 | Mean_Ratio GDI5755_3d: DMSO_3d (BCG_3590 Rieske-type oxygenase): 1.4 | Mean_Ratio GDI5755_3d: DMSO_3d (BCG_3674c ATP-dependent zinc metalloprotease FtsH): 1.3 | Mean_Ratio GDI5755_3d: DMSO_3d (BCG_3709 Rv3651-like N-terminal domain-containing protein): 1.3 | Mean_Ratio GDI5755_3d: DMSO_3d (BCG_3824c Two-component transcriptional regulator TcrX): 1.4 | Mean_Ratio GDI5755_3d: DMSO_3d (BCG_3881 Uncharacterized protein): 1.4 | Mean_Ratio GDI5755_3d: DMSO_3d (BCG_3905c Glycerol phosphoryl diester phosphodiesterase glpQ1): 1.3 | Mean_Ratio (GDI5755_2d vs DMSO_2d), protein L-serine dehydratase (iTRAQ protein abundance ratio, 2 d treatment vs DMSO, sheet down-regulated, Protein_ID A0A0H3M0L9, Pvalue 5.14E-04): 0.80 | Mean_Ratio (GDI5755_2d vs DMSO_2d), protein Endonuclease NucS (iTRAQ protein abundance ratio, 2 d treatment vs DMSO, sheet down-regulated, Protein_ID A0A0H3M5R4, Pvalue 4.43E-04): 0.80 | Mean_Ratio (GDI5755_2d vs DMSO_2d), protein Trehalose 2-sulfotransferase (iTRAQ protein abundance ratio, 2 d treatment vs DMSO, sheet down-regulated, Protein_ID A0A0H3M7Q0, Pvalue 1.60E-03): 0.80 | Mean_Ratio (GDI5755_2d vs DMSO_2d), protein DUF3263 domain-containing protein (iTRAQ protein abundance ratio, 2 d treatment vs DMSO, sheet down-regulated, Protein_ID A0A0H3M274, Pvalue 5.23E-03): 0.80 | Mean_Ratio (GDI5755_2d vs DMSO_2d), protein Translation initiation factor IF-3 (iTRAQ protein abundance ratio, 2 d treatment vs DMSO, sheet down-regulated, Protein_ID A0A0H3MDG6, Pvalue 1.81E-05): 0.80 | Mean_Ratio (GDI5755_2d vs DMSO_2d), protein Possible conserved membrane or exported protein (iTRAQ protein abundance ratio, 2 d treatment vs DMSO, sheet down-regulated, Protein_ID A0A0H3MDQ9, Pvalue 5.91E-05): 0.80 | Mean_Ratio (GDI5755_2d vs DMSO_2d), protein Large ribosomal subunit protein uL22 (iTRAQ protein abundance ratio, 2 d treatment vs DMSO, sheet down-regulated, Protein_ID A1KGI7, Pvalue 5.54E-04): 0.80 | Mean_Ratio (GDI5755_2d vs DMSO_2d), protein ATP-dependent Clp protease ATP-binding subunit ClpX (iTRAQ protein abundance ratio, 2 d treatment vs DMSO, sheet down-regulated, Protein_ID A1KLF3, Pvalue 2.57E-03): 0.80 | Mean Ratio (protein A0A0G2Q9F2 Ribonuclease P protein component): 1.26 | Mean_Ratio (GDI5755_3d vs DMSO_3d) (protein A0A0G2Q9J9, BCG_3329c (Rv3300c), Pseudouridine synthase RsuA/RluA-like domain-containing protein): 0.7 | Mean_Ratio (GDI5755_3d vs DMSO_3d) (protein A0A0G2Q9N9, BCG_0021 (Rv3915), N-acetylmuramoyl-L-alanine amidase CwlM): 0.7 | Mean Ratio (protein A0A0H3M0K6 Probable conserved transmembrane protein): 1.32 | Mean Ratio (protein A0A0H3M0R3 Secreted antigen 85-c fbpC (85C)): 1.28 | Mean Ratio (GDI5755_2d vs DMSO_2d) (protein A0A0H3M1A8 Isoniazid inductible gene protein iniC): 1.34 | Mean_Ratio (GDI5755_3d vs DMSO_3d) (protein A0A0H3M1E3, BCG_0162 (Rv0128), Probable conserved transmembrane protein): 0.7 | Mean Ratio (GDI5755_2d vs DMSO_2d) (protein A0A0H3M1F5 DUF427 domain-containing protein): 1.39 | Mean Ratio (protein A0A0H3M1G0 Possible conserved lipoprotein lpqK): 1.28 | Mean_Ratio (GDI5755_3d vs DMSO_3d) (protein A0A0H3M1I3, BCG_0204 (Rv0167), Conserved hypothetical integral membrane protein yrbE1A): 0.7 | Mean_Ratio (GDI5755_3d vs DMSO_3d) (protein A0A0H3M1V2, BCG_0591c (Rv0547c), Possible oxidoreductase): 0.757 | Mean Ratio (protein A0A0H3M1X4 Probable dehydrogenase/reductase): 1.28 | Mean Ratio (protein A0A0H3M1Z8 Isoniazid inductible gene protein iniA): 1.28 | Mean Ratio (protein A0A0H3M2A5 Carboxymuconolactone decarboxylase-like domain-containing protein): 1.25 | Mean Ratio (protein A0A0H3M2D4 Possible conserved transmembrane protein): 1.26 | Mean_Ratio (GDI5755_3d vs DMSO_3d) (protein A0A0H3M2J1, BCG_0913c (Rv0861c), DNA helicase): 0.746 | Mean_Ratio (GDI5755_3d vs DMSO_3d) (protein A0A0H3M2K9, BCG_0627 (Rv0582), Ribonuclease VapC): 0.74 | Mean_Ratio (GDI5755_3d vs DMSO_3d) (protein A0A0H3M2L9, BCG_0933 (Rv0881), Possible rRNA methyltransferase): 0.7 | Mean_Ratio (GDI5755_3d vs DMSO_3d) (protein A0A0H3M2M6, BCG_0648c (Rv0602c), Two component DNA binding/Transcriptional regulatory protein tcrA): 0.7
